In the first assay the target is [35S]-TBPS binding, rat brain cortical membranes. The assay is described as follows: Steroid inhibition of [35S]-TBPS binding. As to conditions: Table 4, 3 nM [35S]-TBPS, in the presence of 5 mM GABA, read-out: TBPS IC50. As for the experimental part: [35S]-t-Butylbicyclophosphorothionate (TBPS) binding assays using rat brain cortical membranes in the presence of 5 mM GABA has been described (Gee et al, J. Pharmacol. Exp. Ther. 1987, 241, 346-353; Hawkinson et al, Mol. Pharmacol. 1994, 46, 977-985; Lewin, A. H et al., Mol. Pharmacol. 1989, 35, 189-194).
Briefly, cortices are rapidly removed following decapitation of carbon dioxide-anesthetized Sprague-Dawley rats (200-250 g). The cortices are homogenized in 10 volumes of ice-cold 0.32 M sucrose using a glass/teflon homogenizer and centrifuged at 1500×g for 10 min at 4° C. The resultant supernatants are centrifuged at 10,000×g for 20 min at 4° C. to obtain the P2 pellets. The P2 pellets are resuspended in 200 mM NaCl/50 mM Na—K phosphate pH 7.4 buffer and centrifuged at 10,000×g for 10 min at 4° C. This washing procedure is repeated twice and the pellets are resuspended in 10 volumes of buffer. Aliquots ([…]) of the membrane suspensions are incubated with 3 nM [^35S]-TBPS and […] aliquots of test drug dissolved in dimethyl sulfoxide (DMSO) (final 0.5%) in the presence of 5 mM GABA. The incubation is brought to a final volume of 1.0 mL with buffer. Nonspecific binding is determined in the presence of […] and ranged from 15 to 25%. Following a 90 min incubation at room temp, the assays are terminated by filtration through glass fiber filters (Schleicher and Schuell No. 32) using a cell harvester (Brandel) and rinsed three times with ice-cold buffer. Filter bound radioactivity is measured by liquid scintillation spectrometry. Non-linear curve fitting of the overall data for each drug averaged for each concentration is done using Prism (GraphPad). […] The concentration of test compound producing 50% inhibition (IC50) of specific binding and the maximal extent of inhibition (Imax) are determined for the individual experiments with the same model used for the overall data and then the means±SEM.s of the individual experiments are calculated.
Various compounds are or can be screened to determine their potential as modulators of [^35S]-TBPS binding in vitro. These assays are or can be performed in accordance with the above
For the molecule `CC[C@]12CC[C@@](C)(O)C[C@H]1CC[C@H]1[C@@H]3CCCC[C@H](C(=O)Cn4cc(C#N)cn4)[C@@]3(C)CC[C@@H]12` [Example 24], the IC50 was less than 100 nM. On the same count and under the same terms, under `Cc1nnn(CC(=O)[C@@H]2CCCC[C@H]3[C@@H]4CC[C@@H]5C[C@](C)(O)CCC[C@]5(C)[C@H]4CC[C@]23C)n1` [Example 64] stands 100 to 1000 nM; under `CC(=O)[C@H]1CCC[C@H]2[C@@H]3CC[C@@H]4C[C@](C)(O)CCC[C@@H]4[C@H]3CC[C@]12C` [Example 9, 1-((1S,4aS,4bR,6aR,8R,11aS,11bR,13aS)-8-hydroxy-8,13a-dimethyloctadecahydro-1H-cyclohepta[a]phenanthren-1-yl)ethan-1-one], less than 100 nM. `CC[C@]12CC[C@@](C)(O)C[C@H]1CC[C@H]1[C@@H]3CCCC[C@@H](C(=O)Cn4cc(C#N)cn4)[C@@]3(C)CC[C@@H]12` [Example 21]: the IC50 is 100 to 1000 nM.

Turning to `CC[C@@]1(O)CCC[C@H]2[C@H](CC[C@@H]3[C@@H]2CC[C@]2(C)[C@@H](C(=O)Cn4cc(C#N)cn4)CCC[C@@H]32)C1` [Example 14, 1-(2-((1S,4aS,4bR,6aR,8R,11aS,11bR,13aS)-8-ethyl-8-hydroxy-13a-methyloctadecahydro-1H-cyclohepta[a]phenanthren-1-yl)-2-oxoethyl)-1H-pyrazole-4-carbonitrile], the concentration for half-maximal inhibition (IC50) is 100 to 1000 nM.

For the molecule `COC[C@]1(O)CC[C@@H]2CC[C@@H]3[C@H](CC[C@]4(C)[C@@H](C(=O)Cn5cc(C#N)cn5)CCC[C@@H]34)[C@@]2(C)CC1` [Example 56, 1-(2-((1S,4aS,4bR,6aS,9S,11aS,11bS,13aS)-9-hydroxy-9-(methoxymethyl)-11a,13a-dimethyloctadecahydro-1H-cyclohepta[a]phenanthren-1-yl)-2-oxoethyl)-1H-pyrazole-4-carbonitrile], the concentration for half-maximal inhibition (IC50) was 100 to 1000 nM. Same read-out and setting: under `C[C@@]1(O)CCC[C@@]2(C)[C@H](CC[C@@H]3[C@@H]2CC[C@]2(C)[C@H](C(=O)Cn4cc(C#N)cn4)CCC[C@@H]32)C1` [Example 17, 1-(2-((1R,4aS,4bR,6aR,8R,11aS,11bS,13aS)-8-hydroxy-8,11a,13a-trimethyloctadecahydro-1H-cyclohepta[a]phenanthren-1-yl)-2-oxoethyl)-1H-pyrazole-4-carbonitrile] stands greater than 1000 nM; under `Cc1nnn(CC(=O)[C@H]2CCC[C@H]3[C@@H]4CC[C@@H]5C[C@](C)(O)CCC[C@@H]5[C@H]4CC[C@]23C)n1` [Example 11, 1-((1S,4aS,4bR,6aR,8R,11aS,11bR,13aS)-8-hydroxy-8,13a-dimethyloctadecahydro-1H-cyclohepta[a]phenanthren-1-yl)-2-(5-methyl-2H-tetrazol-2-yl)ethan-1-one], less than 100 nM; under `COC[C@]1(O)CC[C@H]2CC[C@@H]3[C@H](CC[C@]4(C)[C@@H](C(=O)Cn5cc(C#N)cn5)CCC[C@@H]34)[C@@]2(C)CC1` [Example 55, 1-(2-((1S,4aS,4bR,6aR,9S,11aS,11bS,13aS)-9-hydroxy-9-(methoxymethyl)-11a,13a-dimethyloctadecahydro-1H-cyclohepta[a]phenanthren-1-yl)-2-oxoethyl)-1H-pyrazole-4-carbonitrile], 100 to 1000 nM.

As for `COC[C@@]1(O)CCC[C@@]2(C)[C@@H](CC[C@@H]3[C@@H]2CC[C@]2(C)[C@@H](C(=O)Cn4cc(C#N)cn4)CCC[C@@H]32)C1` [Example 43], the half-inhibitory concentration (IC50) is less than 100 nM. The same measure, in the same setting: under `C[C@@]1(O)CCC[C@@]2(C)[C@H](CC[C@@H]3[C@@H]2CC[C@]2(C)[C@@H](C(=O)CCn4cc(C#N)cn4)CCC[C@@H]32)C1` [Example 18, 1-(3-((1S,4aS,4bR,6aR,8R,11aS,11bS,13aS)-8-hydroxy-8,11a,13a-trimethyloctadecahydro-1H-cyclohepta[a]phenanthren-1-yl)-3-oxopropyl)-1H-pyrazole-4-carbonitrile] stands less than 100 nM; under `CC(=O)[C@H]1CCC[C@H]2[C@@H]3CC=C4CC[C@](C)(O)CC[C@]4(C)[C@H]3CC[C@]12C` [Example 57, 1-((1S,4aS,4bS,9S,11aR,11bS,13aS)-9-hydroxy-9,11a,13a-trimethyl-2,3,4,4a,4b,5,7,8,9,10,11,11a,11b,12,13,13a-hexadecahydro-1H-cyclohepta[a]phenanthren-1-yl)ethanone], less than 100 nM; under `CC[C@]12CC[C@@](C)(O)C[C@H]1CC[C@H]1[C@@H]3CCCC[C@H](C(C)=O)[C@@]3(C)CC[C@@H]12` [Example 22], less than 100 nM.

For the molecule `C[C@@]1(O)CCC[C@@]2(C)[C@H](CC[C@@H]3[C@@H]2CC[C@]2(C)[C@@H](C(=O)Cn4cc(C#N)cn4)CCCC[C@@H]32)C1` [Example 60], the half-maximal inhibitory concentration (IC50) is less than 100 nM. On the same count and under the same terms, with `CC[C@]12CC[C@H]3[C@@H](CC[C@@H]4C[C@](C)(O)CCC[C@@]43C)[C@@H]1CC[C@@H]2C(=O)Cn1cc(C#N)cn1` [Example 30, 1-(2-((1S,3aS,3bR,5aR,7R,10aS,10bS,12aS)-12a-ethyl-7-hydroxy-7,10a-dimethyloctadecahydrocyclohepta[a]cyclopenta[f]naphthalen-1-yl)-2-oxoethyl)-1H-pyrazole-4-carbonitrile] the figure was less than 100 nM.

Still in this assay, the particulars now being: Table 5, 3 nM [35S]-TBPS, in the presence of 5 mM GABA, read-out: TBPS IC50.
In the case of `C[C@@]1(O)CC[C@H]2[C@H](CC[C@@H]3[C@@H]2CC[C@H]2[C@H]3CC[C@H]2C(=O)Cn2cc(C#N)cn2)C1` (stereo in doubt) [Example 71], the 50% inhibitory concentration (IC50) was greater than 1000 nM. The same measure, in the same setting: under `CC(=O)[C@H]1CCC[C@H]2[C@@H]3CC[C@@H]4C[C@](C)(O)CC[C@@H]4[C@H]3CC[C@@H]21` [Example 77, 1-((1S,4aS,4bR,6aR,8R,10aS,10bR,12aS)-8-hydroxy-8-methyloctadecahydrochrysen-1-yl)-ethanone] stands less than 100 nM; under `Cc1nnn(CC(=O)[C@H]2CCC[C@H]3[C@@H]4CC[C@H]5C[C@](C)(O)CC[C@@H]5[C@H]4CC[C@@H]32)n1` [Example 80, 1-((1S,4aS,4bR,6aS,8R,10aS,10bR,12aS)-8-hydroxy-8-methyloctadecahydrochrysen-1-yl)-2-(5-methyl-2H-tetrazol-2-yl)ethanone], less than 100 nM.

`Cc1nnnn1CC(=O)[C@H]1CCC[C@H]2[C@@H]3CC[C@H]4C[C@](C)(O)CC[C@@H]4[C@H]3CC[C@@H]21` [Example 81, 1-((1S,4aS,4bR,6aS,8R,10aS,10bR,12aS)-8-hydroxy-8-methyloctadecahydrochrysen-1-yl)-2-(5-methyl-1H-tetrazol-1-yl)ethanone]: the IC50 is less than 100 nM.

For `Cc1nnn(CC(=O)[C@H]2CC[C@H]3[C@@H]4CC[C@@H]5C[C@](C)(O)CC[C@@H]5[C@H]4CC[C@@H]32)n1` [Example 69, 1-((3R,5R,8R,9R,10S,13S,14S,17S)-3-hydroxy-3-methylhexadecahydro-1H-cyclopenta[a]phenanthren-17-yl)-2-(5-methyl-2H-tetrazol-2-yl)ethan-1-one], the 50% inhibitory concentration (IC50) was less than 100 nM. As to `CC(=O)[C@H]1CC[C@H]2[C@@H]3CC[C@H]4C[C@](C)(O)CC[C@@H]4[C@H]3CC[C@@H]21` [Example 72, 1-((3R,5S,8R,9R,10S,13S,14S,17S)-3-hydroxy-3-methylhexadecahydro-1H-cyclopenta[a]phenanthren-17-yl)ethanone], the half-maximal inhibitory concentration (IC50) is greater than 1000 nM. Regarding `Cc1nnnn1CC(=O)[C@H]1CC[C@H]2[C@@H]3CC[C@@H]4C[C@](C)(O)CC[C@@H]4[C@H]3CC[C@@H]21` [Example 70, 1-((3R,5R,8R,9R,10S,13S,14S,17S)-3-hydroxy-3-methylhexadecahydro-1H-cyclopenta[a]phenanthren-17-yl)-2-(5-methyl-1H-tetrazol-1-yl)ethan-1-one], the IC50 is less than 100 nM.

Still in this assay, the particulars now being: Table 6, 3 nM [35S]-TBPS, in the presence of 5 mM GABA, read-out: IC50.
In the case of `CC[C@]12CC[C@H]3[C@@H](CC[C@@H]4C[C@](C)(O)CC[C@@]43C3CC3)[C@@H]1CC[C@@H]2C(=O)Cn1ccc(C#N)n1` [Example 90, 1-(2-((3R,5R,8S,9S,10R,13S,14S,17S)-10-cyclopropyl-13-ethyl-3-hydroxy-3-methylhexadecahydro-1H-cyclopenta[a]phenanthren-17-yl)-2-oxoethyl)-1H-pyrazole-3-carbonitrile], the IC50 was less than 100 nM.

The record behind these values is patent US20260098053A1, “COMPOSITIONS AND METHODS FOR TREATING CNS DISORDERS” (SAGE THERAPEUTICS, INC., priority 2019, published 2026).
